For one data set, the target named is T1, h-DHODH (Homo sapiens, UniProt Q02127).
T1 construct: endogenous in cells; host or cells: U937 cells (membrane fraction, solubilised with 1% octyl glucoside)
Put plainly: Dihydro-orotate dehydrogenase inhibition assay (U937 membrane preparations, DCIP reduction). Particulars: U937 membrane preparation; for inhibition at 0.3 µM: compound tested at 0.3 uM (footnote *). The format is biochemical. Here is the method: Dihydro-Orotate Dehydrogenase Inhibition Assay
Dihydro-orotate dehydrogenase (DHODH) catalyzes the […] of dihydro-orotate to orotate during de novo biosynthesis of pyrimidines Inhibition of DHODH activity in U937 membrane preparations was measured by the dihydro-orotate driven reduction of 2,6 dichloroindophenol (DCIP).
U937 cells were homogenized in 20 mM Tris/HCl (pH 7.2) containing 1 mM EDTA. […] Following washes, the pellet was dissolved in 20 mM Tris/HCl containing 150 mM NaCl, 1 mM EDTA, and 1% octyl glucoside on ice for 1 h. Particulate matter was removed by centrifugation at 100000×g for 1 h at 4° C. […] The mixture was incubated at 37° C. for 4 h before measuring the change in absorbance on a plate reader (BMG Labtech., Germany) at 600 nm. Data were analyzed using GraphPad Prism. IC50 for each compound was determined based on the percent inhibition of dihydro-orotate […].

The next data set deals with IL-17. Put plainly: Inhibition of IL-17 release from mouse splenocytes (PMA + ionomycin, ELISA). Type of data set: cell-based, Balb/c mice. Particulars: Splenocyte, 10 μM, 3 h. The method, then:
2. Inhibition of IL-17 Release from Mouse Splenocytes:
Splenocytes isolated from Balb/c mice were re-suspended in RPMI medium at a concentration of 1×10^6 cells/ml and seeded in a 6 well plate. Cells were incubated with desired concentrations of the inhibitor for 15 min prior to induction with 10 ng/ml PMA+1 μM ionomycin. After a 3 h incubation, supernatant was collected and analyzed for IL-17 concentration using an ELISA kit. Data were analyzed using GraphPad Prism. IC50 values for each compound were determined based on the percent inhibition due to the test compound compared to the control.
Background: In an ELISA, binding on a coated surface is turned into a signal by an enzyme label.

Structures are written as SMILES.

T1 sequence (Q02127 whole entry): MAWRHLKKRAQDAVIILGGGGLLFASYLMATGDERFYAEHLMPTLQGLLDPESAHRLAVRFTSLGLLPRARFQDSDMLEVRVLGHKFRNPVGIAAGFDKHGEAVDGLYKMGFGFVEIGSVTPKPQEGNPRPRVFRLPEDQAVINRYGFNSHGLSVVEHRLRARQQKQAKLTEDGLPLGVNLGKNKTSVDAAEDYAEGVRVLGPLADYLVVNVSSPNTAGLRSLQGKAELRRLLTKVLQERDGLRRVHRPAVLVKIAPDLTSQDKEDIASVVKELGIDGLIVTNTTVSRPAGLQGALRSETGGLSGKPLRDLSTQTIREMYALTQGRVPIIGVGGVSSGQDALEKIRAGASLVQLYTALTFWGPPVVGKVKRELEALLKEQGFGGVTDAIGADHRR

One may read the melting point as the temperature, or range, at which the solid turns liquid. A word on the inhibition: it is the change of the read-out against control, counted positive when it falls. On to `CCOc1cccc(-c2cc(F)c(NC(=O)c3cc(Cl)c(Cl)cc3C(=O)O)c(Cl)c2)c1` [Example 14, 4,5-Dichloro-2-(3-chloro-3′-ethoxy-5-fluorobiphenyl-4-ylcarbamoyl)benzoic acid], for which the melting point was 260 to 265 °C. This compound had an inhibition at 1 µM against h-DHODH of 52.2%. Also, in the data set with IL-17, the inhibition at 10 µM came to 13.5%.

As a reminder, the IC50 is the concentration that inhibits the measured activity by half. A higher IC50 goes with a need for much substance. `O=C(O)c1ccccc1C(=O)Nc1c(F)cc(-c2cccc(OC3CC3)c2)cc1F` [Example 73, 2-(3′-cyclopropoxy-3,5-difluorobiphenyl-4-ylcarbamoyl)benzoic acid] yielded a melting point of 125 to 127 °C. For the same compound, on h-DHODH, the IC50 turned out to be 0.028 µM and the inhibition at 0.3 µM worked out at 85%. Further, the inhibition at 10 µM in the data set with IL-17 was found to be 7.86%.

The compound `CCOc1cccc(-c2cc(F)c(NC(=O)c3ncccc3C(=O)O)c(F)c2)c1` [Example 76, 2-(3′-ethoxy-3,5-difluorobiphenyl-4-ylcarbamoyl)nicotinic acid] displayed a melting point of 207 to 210 °C. The compound also showed an inhibition at 0.3 µM against h-DHODH of 44%. Further, the inhibition at 10 µM in the data set on IL-17 worked out at 7.88%.

For `COc1cccc(-c2ccc(NC(=O)c3ccccc3C(=O)O)cc2)c1` [Example 87, 2-(3′-methoxybiphenyl-4-ylcarbamoyl)benzoic acid], the melting point was 243 to 247 °C. For the same compound, at 0.3 µM the inhibition at h-DHODH was 30.2%. In addition, in the data set with IL-17, the inhibition at 10 µM turned out to be 20.9%.

With `CCOc1cccc(-c2cc(F)c(NC(=O)c3ccncc3C(=O)O)c(F)c2)c1` [Example 77, 4-(3′-ethoxy-3,5-difluorobiphenyl-4-ylcarbamoyl)nicotinic acid], the melting point was 219 to 221 °C. The same compound gave an inhibition at 0.3 µM against h-DHODH of 50.2%. Moreover, in the data set with IL-17, the inhibition at 10 µM stood at 9.25%.

`CC(C)COc1cccc(-c2cc(F)c(NC(=O)c3ccccc3C(=O)O)c(F)c2)c1` [Example 34, 2-(3,5-Difluoro-3′-isobutoxybiphenyl-4-ylcarbamoyl)benzoic acid] returned a melting point of 112.6 to 116.4 °C. In addition, at h-DHODH, the inhibition at 1 µM turned out to be 95.8% and the IC50 turned out to be 0.0625 µM. Also, the inhibition at 10 µM in the data set with IL-17 is 5.96%.

In turn, `COc1cccc(-c2cc(F)c(NC(=O)c3cc(Cl)c(Cl)cc3C(=O)O)c(F)c2)c1` [Example 16, 4,5-Dichloro-2-(3,5-difluoro-3′-methoxybiphenyl-4-ylcarbamoyl)benzoic acid] registered a melting point of 158.6 to 162.2 °C. Further, at 1 µM the inhibition against h-DHODH was 28%. The inhibition at 10 µM in the data set on IL-17 came out at 12.3%.

Compound `CCSc1cccc(-c2ccc(NC(=O)c3ccccc3C(=O)O)cc2F)c1` [Example 82, 2-[3′-(ethylthio)-2-fluorobiphenyl-4-ylcarbamoyl]benzoic acid] showed a melting point of 74 to 76 °C. The inhibition at 0.3 µM on h-DHODH stood at 57.9%. For the same compound, the inhibition at 10 µM with IL-17 amounted to 17.6%.

Turning to `CCc1cccc(-c2ccc(NC(=O)c3ccccc3C(=O)O)cc2)c1` [Example 90, 2-(3′-ethylbiphenyl-4-ylcarbamoyl)benzoic acid], the melting point lay in the range of 178 to 182 °C. The same compound showed an inhibition at 1 µM on h-DHODH of 29.4%. The inhibition at 10 µM in the data set on IL-17 worked out at 22.4%.

`CCOc1cccc(-c2cc(F)c(NC(=O)c3cc(Cl)c(Cl)cc3C(=O)O)c(F)c2)c1` [Example 17, 4,5-Dichloro-2-(3′-ethoxy-3,5-difluorobiphenyl-4-ylcarbamoyl)benzoic acid] gave a melting point of 190.1 to 192.4 °C. Besides, the inhibition at 1 µM against h-DHODH was 50.3%. Besides, the inhibition at 10 µM in the data set with IL-17 was determined as 11.1%.

`O=C(O)c1ccccc1C(=O)Nc1c(F)cc(-c2cccc(OCc3ccccc3)c2)cc1F` [Example 13, 2-[3′-(Benzyloxy)-3,5-difluorobiphenyl-4-ylcarbamoyl]benzoic acid]: the melting point is 140.3 to 143.4 °C. On h-DHODH, this compound showed an inhibition at 1 µM of 76.4% and a 50% inhibitory concentration (IC50) of 0.15 µM. Also, the inhibition at 10 µM in the data set on IL-17 amounted to 3.43%.

Take `O=C(O)c1cc(Cl)c(Cl)cc1C(=O)Nc1c(F)cc(-c2ccccc2Cl)cc1Cl` [Example 27, 4,5-Dichloro-2-(2′,3-dichloro-5-fluorobiphenyl-4-ylcarbamoyl)benzoic acid]: the melting point was in the range of 202.3 to 206.5 °C. In addition, on h-DHODH, 1 µM produced 82.9% inhibition and the IC50 came to 0.147 µM. In addition, in the data set with IL-17, the inhibition at 10 µM came to 12.4%.

`O=C(O)c1ccccc1C(=O)Nc1ccc(-c2ccccc2Cl)cc1` [Example 86, 2-(2′-chlorobiphenyl-4-ylcarbamoyl)benzoic acid]: the melting point lay within 243 to 247 °C. The compound further showed an inhibition at 0.3 µM against h-DHODH of 33.6%. The inhibition at 10 µM in the data set on IL-17 was 23.8%.

`O=C(O)c1cc(Cl)c(Cl)cc1C(=O)Nc1c(F)cc(-c2ccccc2Cl)cc1F` [Example 30, 4,5-Dichloro-2-(2′-chloro-3,5-difluorobiphenyl-4-ylcarbamoyl)benzoic acid] displayed a melting point of 202 to 205.5 °C. The inhibition at 1 µM against h-DHODH worked out at 68%. Also, in the data set with IL-17, the inhibition at 10 µM is 10.3%.

Compound `O=C(O)c1ccccc1C(=O)Nc1c(F)cc(-c2cccc(OC3CCCC3)c2)cc1F` [Example 41, 2-[3′-(Cyclopentyloxy)-3,5-difluorobiphenyl-4-ylcarbamoyl]benzoic acid] returned a melting point of 153 to 156.5 °C. At h-DHODH, this compound gave an inhibition at 1 µM of 72.2% and an IC50 of 0.0834 µM. Also, the inhibition at 10 µM with IL-17 came out at 7.16%.

As to `CCCOc1cccc(-c2cc(F)c(NC(=O)c3ccccc3C(=O)O)c(F)c2)c1` [Example 26, 2-(3,5-Difluoro-3′-propoxybiphenyl-4-ylcarbamoyl)benzoic acid], the melting point is 128.6 to 132.1 °C. Further, at h-DHODH, the inhibition at 1 µM was 85.3% and the IC50 worked out at 0.122 µM. Besides, the inhibition at 10 µM in the data set on IL-17 is 8.7%.

With `COc1cccc(-c2cc(F)c(NC(=O)c3ccccc3C(=O)O)c(F)c2)c1` [Example 1, 2-(3,5-Difluoro-3′-methoxybiphenyl-4-ylcarbamoyl)benzoic acid], the melting point lay within 168 to 173 °C. In addition, at h-DHODH, the inhibition at 1 µM is 53.3% and the midpoint of inhibition, the IC50, lay at 0.741 µM. Besides, the inhibition at 10 µM with IL-17 was 6.13%.

`CCSc1cccc(-c2c(F)c(F)c(NC(=O)c3ccccc3C(=O)O)c(F)c2F)c1` [Example 78, 2-[3′-(ethylthio)-2,3,5,6-tetrafluorobiphenyl-4-ylcarbamoyl]benzoic acid] gave a melting point of 158 to 160 °C. Besides, on h-DHODH, the inhibition at 0.3 µM came to 32.9%. In the data set with IL-17, the inhibition at 10 µM was found to be 11.1%.

On to `CCOc1cccc(-c2cc(F)c(NC(=O)c3nccnc3C(=O)O)c(F)c2)c1` [Example 7, 3-(3,5-Difluoro-3′-ethoxybiphenyl-4-ylcarbamoyl)pyrazine-2-carboxylic acid], for which the melting point is 133.4 to 137.3 °C. On h-DHODH, this compound displayed an inhibition at 1 µM of 4.53%. The inhibition at 10 µM in the data set on IL-17 was 8.58%.

With `O=C(O)c1ccccc1C(=O)Nc1c(F)cc(-c2ccccc2F)cc1Cl` [Example 20, 2-(3-Chloro-2′,5-difluorobiphenyl-4-ylcarbamoyl)benzoic acid], the melting point lay within 163 to 167 °C. Besides, the inhibition at 1 µM against h-DHODH worked out at 55.4%. For the same compound, in the data set on IL-17, the inhibition at 10 µM amounted to 24.3%.

Consider `CC(C)Oc1cccc(-c2cc(F)c(NC(=O)c3ccccc3C(=O)O)c(F)c2)c1` [Example 25, 2-(3,5-Difluoro-3′-isopropoxybiphenyl-4-ylcarbamoyl)benzoic acid], for which the melting point lay within 122 to 125 °C. Besides, 1 µM produced 60.2% inhibition against h-DHODH. Further, the inhibition at 10 µM in the data set with IL-17 was found to be 17.5%.

Turning to `CCSc1cccc(-c2cc(F)c(NC(=O)c3ccccc3C(=O)O)c(F)c2)c1` [Example 71, 2-[3′-(ethylthio)-3,5-difluorobiphenyl-4-ylcarbamoyl]benzoic acid], the melting point lay in the range of 137.8 to 142.1 °C. Further, at h-DHODH, the inhibition at 1 µM is 84.8% and the IC50 was 0.0535 µM. Moreover, the inhibition at 10 µM in the data set on IL-17 is 27.8%.

In the case of `COc1cccc(-c2cc(Cl)c(NC(=O)c3ccccc3C(=O)O)c(Cl)c2)c1` [Example 18, 2-(3,5-Dichloro-3′-methoxybiphenyl-4-ylcarbamoyl)benzoic acid], the melting point lay within 163 to 168 °C. At h-DHODH, this compound yielded an inhibition at 1 µM of 62.2% and an IC50 of 0.294 µM. Besides, the inhibition at 10 µM in the data set with IL-17 is 12.1%.

For `COc1cccc(-c2ccc(NC(=O)c3ccccc3C(=O)O)cn2)c1` [Example 3, 2-(6-(3-Methoxyphenyl)pyridin-3-ylcarbamoyl)benzoic acid], the melting point fell in the range of 194 to 199 °C. Moreover, the inhibition at 1 µM against h-DHODH amounted to 14.3%. In addition, in the data set with IL-17, the inhibition at 10 µM came to 17.1%.

Turning to `CCOc1cccc(-c2ccc(NC(=O)c3ccccc3C(=O)O)c(F)c2)c1` [Example 4, 2-(3′-Ethoxy-3-fluorobiphenyl-4-ylcarbamoyl)benzoic acid], the melting point lay within 151 to 157 °C. Further, the inhibition at 1 µM at h-DHODH was found to be 43%. Also, the inhibition at 10 µM in the data set with IL-17 came to 11.2%.
